The results in this text go back to patent US20260376293A1, “METHODS FOR STUDYING GPR158 PHARMACOLOGY AND IDENTIFICATION OF ITS LIGANDS” (UNIVERSITY OF FLORIDA RESEARCH FOUNDATION, INCORPORATED, priority 2022, published 2026).

The structures appear in SMILES notation.

In this test the target is T1, GPR158 R173A mutant (Homo sapiens, UniProt Q5T848, R173A).
T1 sequence (Q5T848 24-1215 R173A): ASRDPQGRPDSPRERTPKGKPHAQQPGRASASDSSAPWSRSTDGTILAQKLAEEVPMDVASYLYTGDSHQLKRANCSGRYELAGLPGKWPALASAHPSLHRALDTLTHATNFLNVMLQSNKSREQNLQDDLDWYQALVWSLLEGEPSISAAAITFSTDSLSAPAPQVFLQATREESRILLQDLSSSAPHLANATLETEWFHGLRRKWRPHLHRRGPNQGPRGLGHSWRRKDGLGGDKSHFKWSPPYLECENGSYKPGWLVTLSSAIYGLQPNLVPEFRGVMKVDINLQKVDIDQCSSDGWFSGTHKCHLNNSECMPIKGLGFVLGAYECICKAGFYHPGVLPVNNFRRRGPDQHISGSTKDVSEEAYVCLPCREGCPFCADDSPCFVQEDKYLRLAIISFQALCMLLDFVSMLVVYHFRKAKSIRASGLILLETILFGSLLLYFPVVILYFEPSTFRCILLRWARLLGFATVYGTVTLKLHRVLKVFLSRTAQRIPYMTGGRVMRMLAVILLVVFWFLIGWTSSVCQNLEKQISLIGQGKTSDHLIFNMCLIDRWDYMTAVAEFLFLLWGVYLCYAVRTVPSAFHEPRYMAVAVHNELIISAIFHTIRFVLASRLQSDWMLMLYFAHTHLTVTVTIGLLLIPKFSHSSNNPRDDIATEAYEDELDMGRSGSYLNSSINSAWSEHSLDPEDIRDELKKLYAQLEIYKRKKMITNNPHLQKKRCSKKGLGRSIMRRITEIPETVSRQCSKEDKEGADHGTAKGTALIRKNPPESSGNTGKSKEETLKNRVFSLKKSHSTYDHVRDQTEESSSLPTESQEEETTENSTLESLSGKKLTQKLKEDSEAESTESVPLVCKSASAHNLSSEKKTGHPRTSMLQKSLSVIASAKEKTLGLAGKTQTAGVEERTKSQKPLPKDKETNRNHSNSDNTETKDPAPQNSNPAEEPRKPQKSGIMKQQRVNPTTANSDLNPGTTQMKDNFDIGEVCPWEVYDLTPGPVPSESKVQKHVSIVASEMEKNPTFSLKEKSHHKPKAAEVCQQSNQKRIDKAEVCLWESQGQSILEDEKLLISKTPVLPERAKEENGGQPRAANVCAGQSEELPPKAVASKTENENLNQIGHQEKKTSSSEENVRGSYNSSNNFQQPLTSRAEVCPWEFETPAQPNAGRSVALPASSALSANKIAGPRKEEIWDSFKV
Put plainly: Radioligand binding assay on GPR158 mutant R173A. From the text: FIGS. 11A-11G. Probing Cache domain of GPR158 as a ligand binding site A) Computational docking of glycine into putative ligand binding pocket on GPR158 Cache domain. Glycine and directly interacting residues are shown as sticks. Hydrogen bonds and van der Waals interactions are shown as dotted lines. B) Diagram showing interactions in the docked model of glycine against GPR158 Cache domain. Hydrogen bonds are shown as dashed lines, van der Waals interactions are shown as intersecting semicircles, and the secondary structural context of Ser266 and Tyr269 is shown as an arc. Dagger indicates a residue implicated in glycine binding in 11A. C) Radioligand binding assay of ^3H-glycine in cells expressing GPR158 mutants. Data shown mean±s.e.m. of 3 independent experiments, *p<0.05, ns=p>0.05 one-way ANOVA. D) Functional evaluation of GPR158 mutants in GAP BRET assay. Error bars are mean±s.e.m. of 3 independent experiments in triplicate. *p<0.05, **p<0.01, ***p<0.001, ****p<0.0001, ns=p>0.05, two-way ANOVA Columns with no fill (Ctrl), columns with angled-line fill (Glycine) E) Quantification of glycine inhibitory effect on kGAP normalized to the effect seen with WT receptor. […]
Whole cell binding was performed using cDNA of GPR158-venus or each GPR158-venus mutant or empty pcDNA3.1+ for ctrl cells. […] Finally radioactivity was measured using the liquid scintillation analyzer Tri-Carb 4910 TR.

With `NCC(=O)O` [^3H-glycine, [^3H]-glycine], the “[^3H]-glycine binding” value is “near complete loss”.
